{
  "source": "patent US20240180923A1",
  "about": "“METHODS OF TREATING DISORDERS WITH ULK INHIBITORS” (Deciphera Pharmaceuticals, LLC, priority 2022, published 2024)",
  "system": "autophagy flux in KRAS G12C mutated non-small cell lung cancer cells",
  "assay": "Autophagy flux assay in H358 cells, DCC-3116 with adagrasib or sotorasib",
  "assay_type": "cell-based",
  "conditions": "FIG. 12B",
  "experimental": "Constructs were designed through VectorBuilder. For each cell line, 10 ml of appropriate media was mixed with Polybrene (VectorBuilder, Cat #PL0001, stock concentration 5 mg/ml, 200 ul) to a final concentration of 15 ng/μL. These solutions were added to the 6-well plate with various cell lines plated the previous day. Cells were checked after 22 hours of incubation. Media was then removed from the cells and incubated with fresh media containing puromycin (Sigma Cat #P9620). Cells that survived puromycin selection and successfully expressed mCherry-GFP-LC3 were used for flux assays.\nCells are seeded in FluoroBrite DMEM (Gibco Ref #A18967-01) supplemented with 10% FBS (Gibco ref #A384000-001) and Pen/Strep/Glutamine (Gibco Ref #10378-016) at appropriate seeding numbers defined empirically. The next day, cells are treated with DCC-3116 and/or sotorasib or adagrasib or DMSO as a control. Cells are placed in the IncuCyte for live cell imaging over the indicated time length at 37° C. with 20% 02 and 5% CO2. Cells were imaged at 4× objective lens every four hours. The data was analyzed using the Incucyte software by measuring Total Integrated Intensity (GCUX μM2/images) of red (mCherry) divided by (GCUX μM2/images) green (GFP) to measure the ratio of red/green signal change over time.",
  "data": [
    {"smiles": "CCc1cc(N2CCN(C)CC2)ccc1Nc1ncc(C(F)(F)F)c(NCCCN2CCOCCC2=O)n1", "note": "[DCC-3116]", "values": [
      {"measurement": "effect on KRAS G12C inhibitor (adagrasib or sotorasib)-induced autophagy flux", "result": "inhibits"}
    ]}
  ]
}
